Results: PubChem BioAssay (NCI)
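96-well plates; 48 h exposure; 5 concentrations. Endpoints by linear interpolation between flanking doses. Not reached: highest tested concentration assigned. GI50 = concentration required for 50% inhibition of growth. TGI denotes the concentration required for complete inhibition of growth.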

Experiments:
Assay in all cases: growth of human tumour cells (NCI), 48 h
OVCAR-5 ovarian = tested on: OVCAR-5 ovarian
OVCAR-8 ovarian = tested on: OVCAR-8 ovarian
CAKI-1 renal = tested on: CAKI-1 renal
SF-295 CNS = tested on: SF-295 CNS
HOP-92 NSCLC = tested on: HOP-92 NSCLC
K-562 leukemia = tested on: K-562 leukemia
SNB-75 CNS = tested on: SNB-75 CNS
TK-10 renal = tested on: TK-10 renal
NCI/ADR-RES ovarian = tested on: NCI/ADR-RES ovarian
BT-549 breast = tested on: BT-549 breast

| SMILES | GI50 (OVCAR-5 ovarian) | TGI (OVCAR-5 ovarian) | GI50 (OVCAR-8 ovarian) | TGI (OVCAR-8 ovarian) | GI50 (CAKI-1 renal) | TGI (CAKI-1 renal) | GI50 (SF-295 CNS) | TGI (SF-295 CNS) | GI50 (HOP-92 NSCLC) | TGI (HOP-92 NSCLC) | GI50 (K-562 leukemia) | TGI (K-562 leukemia) | GI50 (SNB-75 CNS) | TGI (SNB-75 CNS) | GI50 (TK-10 renal) | TGI (TK-10 renal) | TGI (NCI/ADR-RES ovarian) | GI50 (NCI/ADR-RES ovarian) | GI50 (BT-549 breast) | TGI (BT-549 breast) |
| --- | --- | --- | --- | --- | --- | --- | --- | --- | --- | --- | --- | --- | --- | --- | --- | --- | --- | --- | --- | --- |
| CC(=O)[O][Ga]([Cl])[O]C(C)=O | > 100 µM | > 100 µM | > 100 µM | > 100 µM | > 100 µM | > 100 µM | > 100 µM | > 100 µM | > 100 µM | > 100 µM | > 100 µM | > 100 µM | > 100 µM | > 100 µM | > 100 µM | > 100 µM | – | – | – | – |
| COc1cccc(-c2cc(=O)c3cc(OC)ccc3[nH]2)c1 | 0.528 µM | > 100 µM | 0.79 µM | – | 0.0319 µM | > 100 µM | 0.292 µM | – | 7.15 µM | – | 0.0288 µM | 0.393 µM | – | – | – | 84.9 µM | 0.445 µM | – | – | – |
| Clc1ccc(SC(/C=C/NNC2=NC(c3ccccc3)C(c3ccccc3)=NN2)c2ccccc2)cc1 (stereo unspecified) | – | > 100 µM | – | > 100 µM | – | 54.1 µM | – | 89.6 µM | – | 32.6 µM | – | 53.1 µM | – | 64.7 µM | – | > 100 µM | – | – | – | – |
| CN(C)CC(C)(C)C(=O)/C=C/c1ccc(/C=C/C(=O)C(C)(C)CN(C)C)cc1 | – | 3.51 µM | – | 6.71 µM | – | 2.9 µM | – | 3.84 µM | – | 2.22 µM | – | 0.594 µM | – | 3.05 µM | – | 3.03 µM | – | – | – | – |
| O=C1c2ccccc2C(Br)(Br)c2ccccc21 | – | > 31.6 µM | – | > 100 µM | – | – | – | > 31.6 µM | – | > 100 µM | – | > 31.6 µM | – | > 31.6 µM | – | > 100 µM | – | – | – | – |
| O=C(CP(=O)(O)O)NC(CC(=O)OCc1ccccc1)C(=O)OCc1ccccc1 (stereo unspecified) | – | > 100 µM | – | > 100 µM | – | > 100 µM | – | > 100 µM | – | > 100 µM | – | > 100 µM | – | > 100 µM | – | – | > 100 µM | – | – | – |
| C[N-]c1nnnn1C.[Au+].c1ccc([PH+](c2ccccc2)c2ccccc2)cc1 | 19.1 µM | 34 µM | 3.18 µM | 14.2 µM | 2.39 µM | 5 µM | 3.47 µM | 12.2 µM | 2.67 µM | 5.42 µM | 0.518 µM | 2.88 µM | 4.75 µM | 11 µM | 2.19 µM | 4.42 µM | – | – | – | – |
| O=C(O)CCCCCCC[C@H]1S[C@H]1CCCCCCO | – | > 100 µM | – | > 100 µM | – | > 100 µM | – | > 100 µM | – | – | – | > 100 µM | – | – | – | > 100 µM | – | – | – | – |
| CC(C)CC(NC(=O)c1cccc(O)c1O)C(=O)NCc1cc(CNC(=O)C(CC(C)C)NC(=O)c2cccc(O)c2O)cc(CNC(=O)C(CC(C)C)NC(=O)c2cccc(O)c2O)c1 (stereo unspecified) | – | 27.1 µM | – | > 100 µM | – | > 100 µM | – | 38.6 µM | – | 32 µM | – | > 100 µM | – | 45.9 µM | – | > 100 µM | – | – | – | – |
| COC(=O)[C@@H](C)C[C@H](Cc1ccccc1)NC(=O)c1csc(CC[C@H](C(C)C)N(C)C(=O)[C@@H](NC(=O)[C@H]2CCCCN2C)C(C)C)n1 | 1.26 µM | > 33.3 µM | 0.465 µM | > 33.3 µM | – | – | 0.334 µM | > 33.3 µM | 0.582 µM | > 26.9 µM | 0.131 µM | > 33.3 µM | 0.222 µM | 9.2 µM | > 15.2 µM | > 33.3 µM | > 33.3 µM | 3.46 µM | 0.179 µM | 3.81 µM |
